Experiment [1] has as its target T1, Human HDAC1 (Homo sapiens, UniProt Q13547).
T1 construct: full length with C-terminal His-tag and C-terminal FLAG-tag; His (C); FLAG (C); host or cells: baculovirus expression system
Put plainly: HDAC1 biochemical assay, AMC-labeled peptide substrate. As to conditions: read-out: HDAC Isoform IC50 (nM) 1. A digest of the protocol: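 Two-step fluorogenic read: HDAC1 deacetylates 50 μM acetyl-lysine AMC peptide RHKK(Ac)AMC for 1 h at 30° C (pH 8.0, 1% DMSO, with compound), then developer digests the product for fluorescence at Ex/Em 360/460. Enzyme is full-length human, His/FLAG-tagged, insect-cell expressed, at 0.3 ng/ul.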

Experiment [2] deals with T2, Human HDAC4 (Homo sapiens, UniProt P56524).
T2 construct: amino acids 627-1085 with N-terminal GST tag; GST (N); host or cells: baculovirus expression system
The experiment can be described thus: HDAC4 biochemical assay, class IIa-specific substrate. The following applies: read-out: HDAC Isoform IC50 (nM) 4. A digest of the protocol: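 Two-step fluorogenic read-out: deacetylated BOC-Lys(trifluoroacetyl)-AMC (50 μM) was digested by developer and measured at Ex/Em 360/460. Deacetylation by 0.004 ng/ul HDAC4 (aa 627-1085, N-terminal GST) ran 30 min at room temperature, pH 8.0 Tris buffer, 1 mg/mL BSA, 1% DMSO.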

Experiment [3] addresses T3, Human HDAC5 (Homo sapiens, UniProt Q9UQL6).
T3 construct: full length with C-terminal His tag, MW=51.1 kDa; His (C); host or cells: baculovirus expression system
The experiment can be described thus: HDAC5 biochemical assay, class IIa-specific substrate. As to conditions: read-out: HDAC Isoform IC50 (nM) 5. The method, boiled down: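 Two-step fluorogenic read-out: deacetylated trifluoroacetyl-lysine AMC substrate (50 μM) digested by developer, measured at Ex/Em 360/460. Deacetylation step: 0.05 ng/ul His-tagged full-length baculoviral enzyme with compound, 30 min, room temperature, pH 8.0 Tris with 1 mg/mL BSA and 1% DMSO.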

Experiment [4] addresses T4, Human HDAC9 (Homo sapiens, UniProt Q9UKV0).
T4 construct: amino acids 604-1066 with C-terminal His tag; His (C); host or cells: baculovirus expression system
The experiment can be described thus: HDAC9 biochemical assay, class IIa-specific substrate. The following applies: read-out: HDAC Isoform IC50 (nM) 9. A digest of the protocol: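 HDAC9 residues 604-1066 (C-terminal His tag, baculovirus-expressed) at 0.06 ng/ul with 50 μM class IIa substrate Boc-Lys(trifluoroacetyl)-AMC in Tris-HCl pH 8.0 buffer with BSA and 1% DMSO. 30 min at room temperature, then developer added; fluorescence read at 360/460 nm Ex/Em.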

In experiment [5] the target is T5, Human HDAC10 (Homo sapiens, UniProt Q969S8).
T5 construct: Human HDAC10 (a.a. 1-481); GST (N); His (C); host or cells: baculovirus expression system
T5 sequence (Q969S8 1-481): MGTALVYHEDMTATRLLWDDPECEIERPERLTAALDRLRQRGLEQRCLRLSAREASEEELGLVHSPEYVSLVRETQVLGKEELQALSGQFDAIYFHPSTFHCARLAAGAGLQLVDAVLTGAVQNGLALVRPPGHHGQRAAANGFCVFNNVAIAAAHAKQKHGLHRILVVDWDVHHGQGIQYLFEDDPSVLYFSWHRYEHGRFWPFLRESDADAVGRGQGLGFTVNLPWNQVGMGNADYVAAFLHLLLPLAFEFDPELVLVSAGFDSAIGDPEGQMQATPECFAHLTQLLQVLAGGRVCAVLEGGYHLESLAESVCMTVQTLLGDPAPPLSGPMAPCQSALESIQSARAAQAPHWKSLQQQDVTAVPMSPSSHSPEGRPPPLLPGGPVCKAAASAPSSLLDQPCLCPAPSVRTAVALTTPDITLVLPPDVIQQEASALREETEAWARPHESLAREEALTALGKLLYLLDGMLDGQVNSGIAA
Put plainly: HDAC10 biochemical assay, AMC-labeled peptide substrate. As to conditions: read-out: HDAC Isoform IC50 (nM) 10. A digest of the protocol:
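Two-step fluorogenic read-out (Ex/Em 360/460) after developer digestion of deacetylated RHKK(Ac)AMC (50 μM). Deacetylation ran 2 h at 30 °C with 12 ng/ul HDAC10 (aa 1-481, GST/His tags, baculovirus) in Tris-HCl pH 8.0, BSA, 1% DMSO.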

Experimental findings from patent US20210038607A1, “OXADIAZOLYLTHIOPHENE DERIVATIVES USEFUL AS HISTONE DEACETYLASE INHIBITORS” (Karus Therapeutics Limited, priority 2018, published 2021) are described below.

As usually defined, the IC50 is the concentration that inhibits the measured activity by half.

T3 sequence (Q9UQL6 656-1122 limits assumed): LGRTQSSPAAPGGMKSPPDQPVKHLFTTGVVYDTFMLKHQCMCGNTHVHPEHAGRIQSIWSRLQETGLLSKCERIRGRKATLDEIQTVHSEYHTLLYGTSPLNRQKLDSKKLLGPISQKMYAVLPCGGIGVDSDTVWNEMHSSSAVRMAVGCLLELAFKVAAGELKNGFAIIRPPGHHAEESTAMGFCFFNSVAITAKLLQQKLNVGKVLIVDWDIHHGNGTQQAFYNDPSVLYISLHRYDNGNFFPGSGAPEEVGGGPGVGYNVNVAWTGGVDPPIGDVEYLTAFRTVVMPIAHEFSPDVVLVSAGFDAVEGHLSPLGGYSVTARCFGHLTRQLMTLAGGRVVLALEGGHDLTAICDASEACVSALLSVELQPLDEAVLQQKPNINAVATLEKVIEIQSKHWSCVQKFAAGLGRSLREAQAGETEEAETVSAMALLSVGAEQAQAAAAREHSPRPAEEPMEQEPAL
T2 sequence (P56524 627-1084 limits assumed): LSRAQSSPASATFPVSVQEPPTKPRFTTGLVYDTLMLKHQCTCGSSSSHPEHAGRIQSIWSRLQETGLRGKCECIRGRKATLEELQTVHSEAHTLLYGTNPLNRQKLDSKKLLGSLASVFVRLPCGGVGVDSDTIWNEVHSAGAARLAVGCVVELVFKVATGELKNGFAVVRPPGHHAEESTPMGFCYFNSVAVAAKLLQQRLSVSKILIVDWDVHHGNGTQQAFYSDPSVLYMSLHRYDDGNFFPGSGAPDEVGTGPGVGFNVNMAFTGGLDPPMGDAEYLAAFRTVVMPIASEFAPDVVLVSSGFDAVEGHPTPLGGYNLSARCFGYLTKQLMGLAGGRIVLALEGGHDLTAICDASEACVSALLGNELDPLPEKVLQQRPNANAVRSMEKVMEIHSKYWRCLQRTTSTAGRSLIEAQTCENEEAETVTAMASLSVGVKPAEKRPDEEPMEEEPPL
T1 sequence (Q13547 whole entry): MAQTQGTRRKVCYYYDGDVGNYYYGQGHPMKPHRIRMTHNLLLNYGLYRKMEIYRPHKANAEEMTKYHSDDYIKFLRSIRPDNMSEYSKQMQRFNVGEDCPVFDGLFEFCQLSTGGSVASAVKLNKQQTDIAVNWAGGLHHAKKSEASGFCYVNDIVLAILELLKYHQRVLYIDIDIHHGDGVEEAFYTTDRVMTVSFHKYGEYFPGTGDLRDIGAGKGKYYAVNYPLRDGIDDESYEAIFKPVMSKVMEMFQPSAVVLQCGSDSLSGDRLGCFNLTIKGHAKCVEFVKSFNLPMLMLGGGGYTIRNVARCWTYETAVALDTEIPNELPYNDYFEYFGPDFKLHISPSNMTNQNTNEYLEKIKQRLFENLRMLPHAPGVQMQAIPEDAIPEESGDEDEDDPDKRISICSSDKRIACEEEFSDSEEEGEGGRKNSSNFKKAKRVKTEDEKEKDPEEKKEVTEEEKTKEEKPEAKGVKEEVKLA
T4 sequence (Q9UKV0 604-1066 isoform Q9UKV0-5): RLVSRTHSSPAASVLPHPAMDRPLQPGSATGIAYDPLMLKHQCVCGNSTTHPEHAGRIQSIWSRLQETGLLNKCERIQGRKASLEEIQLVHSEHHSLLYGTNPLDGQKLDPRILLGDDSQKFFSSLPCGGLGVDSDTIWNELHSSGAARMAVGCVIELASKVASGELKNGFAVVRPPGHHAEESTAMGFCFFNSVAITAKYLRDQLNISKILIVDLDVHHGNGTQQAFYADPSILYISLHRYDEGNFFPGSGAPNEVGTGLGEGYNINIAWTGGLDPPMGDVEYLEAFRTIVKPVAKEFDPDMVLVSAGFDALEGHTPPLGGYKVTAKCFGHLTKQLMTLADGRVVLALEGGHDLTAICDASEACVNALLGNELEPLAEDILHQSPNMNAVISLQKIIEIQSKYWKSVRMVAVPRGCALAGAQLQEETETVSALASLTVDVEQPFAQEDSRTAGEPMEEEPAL

As for `FC(F)(F)c1nc(-c2ccc(CN(c3ccncn3)c3cnccn3)s2)no1` [Example BZ, N-(Pyrazin-2-yl)-N-({5-[5-(trifluoromethyl)-1,2,4-oxadiazol-3-yl]thiophen-2-yl}methyl)pyrimidin-4-amine], the half-inhibitory concentration (IC50) was > 10000 nM in experiment [1]; ≤ 500 nM in experiment [2]; ≤ 500 nM in experiment [3]; ≤ 500 nM in experiment [4]; > 10000 nM in experiment [5].

Turning to `CS(=O)(=O)c1nccc(N(Cc2ccc(-c3noc(C(F)(F)F)n3)s2)c2cnccn2)n1` [Example CE, 2-Methanesulfonyl-N-(pyrazin-2-yl)-N-({5-[5-(trifluoromethyl)-1,2,4-oxadiazol-3-yl]thiophen-2-yl}methyl)pyrimidin-4-amine], the IC50 in experiment [1] was ≤ 10000 nM; in experiment [2] it was ≤ 10000 nM; in experiment [3], ≤ 1000 nM; in experiment [4], ≤ 10000 nM.

For `FC(F)(F)c1nc(-c2ccc(CN(c3cncnc3)c3cnccn3)s2)no1` [Example CR, N-(Pyrazin-2-yl)-N-({5-[5-(trifluoromethyl)-1,2,4-oxadiazol-3-yl]thiophen-2-yl}methyl)pyrimidin-5-amine], the concentration for half-maximal inhibition (IC50) in experiment [1] was > 10000 nM; in experiment [2], ≤ 500 nM; in experiment [3], ≤ 500 nM; in experiment [4], ≤ 500 nM; in experiment [5], > 10000 nM.

`FC(F)(F)c1ccc(N(Cc2ccc(-c3noc(C(F)(F)F)n3)s2)c2cnccn2)nn1` [Example DH, N-(Pyrazin-2-yl)-6-(trifluoromethyl)-N-({5-[5-(trifluoromethyl)-1,2,4-oxadiazol-3-yl]thiophen-2-yl}methyl)pyridazin-3-amine]: the IC50 in experiment [1] is ≤ 10000 nM; in experiment [2], ≤ 1000 nM; in experiment [3], ≤ 1000 nM; in experiment [4] it was ≤ 10000 nM; in experiment [5], > 10000 nM.

As for `FC(F)(F)c1nc(-c2ccc(CN(c3cnccn3)c3ccc(N4CCCC4)nn3)s2)no1` [Example DI, N-(Pyrazin-2-yl)-6-(pyrrolidin-1-yl)-N-({5-[5-(trifluoromethyl)-1,2,4-oxadiazol-3-yl]thiophen-2-yl}methyl)pyridazin-3-amine], the IC50 is ≤ 10000 nM in experiment [1]; ≤ 1000 nM in experiment [2]; ≤ 1000 nM in experiment [3]; ≤ 10000 nM in experiment [4]; > 10000 nM in experiment [5].

In the case of `CS(=O)(=O)c1ccc(N(Cc2ccc(-c3noc(C(F)(F)F)n3)s2)c2cnccn2)nn1` [Example DL, 6-Methanesulfonyl-N-(pyrazin-2-yl)-N-({5-[5-(trifluoromethyl)-1,2,4-oxadiazol-3-yl]thiophen-2-yl}methyl)pyridazin-3-amine], the IC50 was ≤ 10000 nM in experiment [1]; ≤ 500 nM in experiment [2]; ≤ 500 nM in experiment [3]; ≤ 10000 nM in experiment [4]; > 10000 nM in experiment [5].

As to `FC(F)(F)c1nc(-c2ccc(CN(c3ccccn3)c3cnccn3)s2)no1` [Example V, N-(Pyridin-2-yl)-N-({5-[5-(trifluoromethyl)-1,2,4-oxadiazol-3-yl]thiophen-2-yl}methyl)pyrazin-2-amine], the half-inhibitory concentration (IC50) in experiment [1] is > 10000 nM; in experiment [2], ≤ 10000 nM; in experiment [3], ≤ 10000 nM; in experiment [4], ≤ 10000 nM; in experiment [5], > 10000 nM.
